From US20230085307A1, “PYRIDAZINONE COMPOUND AND HERBICIDE” (NISSAN CHEMICAL CORPORATION, priority 2019, published 2023)

Assays:
barnyard grass [1] = test: Test Example 3: herbicidal effect by foliage application, Wagner pot (Table 18, symbol H); format: in vivo, barnyard grass (Echinochloa crus-galli); details: 320 g/ha
Procedure, shortened: (§1)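 Plants were sown in alluvial soil held under 0.1–0.5 cm standing water and grown 14 days in a greenhouse at 25–30 °C. An emulsifiable formulation, water-diluted to the set dose, was then sprayed onto the foliage, and effects were scored three weeks later using previously defined criteria.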

Chinese sprangletop = test: Test Example 3: herbicidal effect by foliage application, Wagner pot (Table 18, symbol D); format: in vivo, chinese sprangletop (Leptochloa chinensis); details: 320 g/ha
Procedure, shortened: as §1

rice flat sedge = test: Test Example 3: herbicidal effect by foliage application, Wagner pot (Table 18, symbol E); format: in vivo, rice flat sedge (Cyperus iria); details: 320 g/ha
Procedure, shortened: as §1

southern crabgrass [2] = test: Test Example 4: herbicidal effect by soil treatment (Table 19, symbol F); format: in vivo, southern crabgrass (Digitaria ciliaris); details: 320 g/ha
Procedure, shortened: (§2)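 Seeds were sown in sterilized diluvial soil and covered with about 1.5 cm of soil. An emulsion formulation diluted with water to a predetermined herbicide amount was sprayed evenly onto the soil surface. Plants grew in a greenhouse at 25° C. to 30° C., and the effect was scored three weeks after application using criteria from an earlier test.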

green foxtail [3] = test: Test Example 4: herbicidal effect by soil treatment (Table 19, symbol G); format: in vivo, green foxtail (Setaria viridis); details: 320 g/ha
Procedure, shortened: as §2

barnyard grass [4] = test: Test Example 4: herbicidal effect by soil treatment (Table 19, symbol H); format: in vivo, barnyard grass (Echinochloa crus-galli); details: 320 g/ha
Procedure, shortened: as §2

wild oat [5] = test: Test Example 4: herbicidal effect by soil treatment (Table 19, symbol I); format: in vivo, wild oat (Avena fatua); details: 320 g/ha
Procedure, shortened: as §2

blackgrass [6] = test: Test Example 4: herbicidal effect by soil treatment (Table 19, symbol J); format: in vivo, blackgrass (Alopecurus myosuroides); details: 320 g/ha
Procedure, shortened: as §2

Italian ryegrass [7] = test: Test Example 4: herbicidal effect by soil treatment (Table 19, symbol K); format: in vivo, Italian ryegrass (Lolium multiflorum); details: 320 g/ha
Procedure, shortened: as §2

windgrass [8] = test: Test Example 4: herbicidal effect by soil treatment (Table 19, symbol L); format: in vivo, windgrass (Apera spica-venti); details: 320 g/ha
Procedure, shortened: as §2

velvetleaf [9] = test: Test Example 4: herbicidal effect by soil treatment (Table 19, symbol M); format: in vivo, velvetleaf (Abutilon theophrasti); details: 320 g/ha
Procedure, shortened: as §2

redroot pigweed [10] = test: Test Example 4: herbicidal effect by soil treatment (Table 19, symbol N); format: in vivo, redroot pigweed (Amaranthus retroflexus); details: 320 g/ha
Procedure, shortened: as §2

lambsquarters [11] = test: Test Example 4: herbicidal effect by soil treatment (Table 19, symbol O); format: in vivo, lambsquarters (Chenopodium album); details: 320 g/ha
Procedure, shortened: as §2

chickweed [12] = test: Test Example 4: herbicidal effect by soil treatment (Table 19, symbol P); format: in vivo, common chickweed (Stellaria media); details: 320 g/ha
Procedure, shortened: as §2

persian speedwell [13] = test: Test Example 4: herbicidal effect by soil treatment (Table 19, symbol R); format: in vivo, Persian speedwell (Veronica persica); details: 320 g/ha
Procedure, shortened: as §2

southern crabgrass [14] = test: Test Example 5: herbicidal effect by foliage application, plastic box (Table 20, symbol F); format: in vivo, southern crabgrass (Digitaria ciliaris); details: foliage application, 320 g/ha, evaluated three weeks after application
Procedure, shortened: (§3)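 Plants sown in sterilized diluvial soil and grown 14 days in a greenhouse at 25° C to 30° C, then sprayed on the foliage with the compound's emulsion diluted in water to a predetermined herbicide amount. Injury to weeds and crops scored three weeks after application on a visual rating scale.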

green foxtail [15] = test: Test Example 5: herbicidal effect by foliage application, plastic box (Table 20, symbol G); format: in vivo, green foxtail (Setaria viridis); details: foliage application, 320 g/ha, evaluated three weeks after application
Procedure, shortened: as §3

barnyard grass [16] = test: Test Example 5: herbicidal effect by foliage application, plastic box (Table 20, symbol H); format: in vivo, barnyard grass (Echinochloa crus-galli); details: foliage application, 320 g/ha, evaluated three weeks after application
Procedure, shortened: as §3

wild oat [17] = test: Test Example 5: herbicidal effect by foliage application, plastic box (Table 20, symbol I); format: in vivo, wild oat (Avena fatua); details: foliage application, 320 g/ha, evaluated three weeks after application
Procedure, shortened: as §3

blackgrass [18] = test: Test Example 5: herbicidal effect by foliage application, plastic box (Table 20, symbol J); format: in vivo, blackgrass (Alopecurus myosuroides); details: foliage application, 320 g/ha, evaluated three weeks after application
Procedure, shortened: as §3

Italian ryegrass [19] = test: Test Example 5: herbicidal effect by foliage application, plastic box (Table 20, symbol K); format: in vivo, Italian ryegrass (Lolium multiflorum); details: foliage application, 320 g/ha, evaluated three weeks after application
Procedure, shortened: as §3

windgrass [20] = test: Test Example 5: herbicidal effect by foliage application, plastic box (Table 20, symbol L); format: in vivo, windgrass (Apera spica-venti); details: foliage application, 320 g/ha, evaluated three weeks after application
Procedure, shortened: as §3

velvetleaf [21] = test: Test Example 5: herbicidal effect by foliage application, plastic box (Table 20, symbol M); format: in vivo, velvetleaf (Abutilon theophrasti); details: foliage application, 320 g/ha, evaluated three weeks after application
Procedure, shortened: as §3

redroot pigweed [22] = test: Test Example 5: herbicidal effect by foliage application, plastic box (Table 20, symbol N); format: in vivo, redroot pigweed (Amaranthus retroflexus); details: foliage application, 320 g/ha, evaluated three weeks after application
Procedure, shortened: as §3

lambsquarters [23] = test: Test Example 5: herbicidal effect by foliage application, plastic box (Table 20, symbol O); format: in vivo, lambsquarters (Chenopodium album); details: foliage application, 320 g/ha, evaluated three weeks after application
Procedure, shortened: as §3

chickweed [24] = test: Test Example 5: herbicidal effect by foliage application, plastic box (Table 20, symbol P); format: in vivo, common chickweed (Stellaria media); details: foliage application, 320 g/ha, evaluated three weeks after application
Procedure, shortened: as §3

persian speedwell [25] = test: Test Example 5: herbicidal effect by foliage application, plastic box (Table 20, symbol R); format: in vivo, Persian speedwell (Veronica persica); details: foliage application, 320 g/ha, evaluated three weeks after application
Procedure, shortened: as §3

## Cc1nn(C)c(=O)c(-c2c(-c3ccc(OCC#N)cc3)sc3ccc(F)cc23)c1O [2-066]
Barnyard grass [1]
  herbicidal effect on H (barnyard grass), rating 0-5: 4 (Herbicidal rate of 70% or more and less than 90%)
Chinese sprangletop
  herbicidal effect on D (Chinese sprangletop), rating 0-5: 3 (Herbicidal rate of 40% or more and less than 70%)
Rice flat sedge
  herbicidal effect on E (rice flat sedge), rating 0-5: 1 (Herbicidal rate of 5% or more and less than 20%)
Southern crabgrass [2]
  herbicidal effect rating, F: southern crabgrass: 0 (Herbicidal rate of 5% or less (almost no effect))
Green foxtail [3]
  herbicidal effect rating, G: green foxtail: 0 (Herbicidal rate of 5% or less (almost no effect))
Barnyard grass [4]
  herbicidal effect rating, H: barnyard grass: 0 (Herbicidal rate of 5% or less (almost no effect))
Wild oat [5]
  herbicidal effect rating, I: wild oat: 0 (Herbicidal rate of 5% or less (almost no effect))
Blackgrass [6]
  herbicidal effect rating, J: blackgrass: 0 (Herbicidal rate of 5% or less (almost no effect))
Italian ryegrass [7]
  herbicidal effect rating, K: Italian ryegrass: 0 (Herbicidal rate of 5% or less (almost no effect))
Windgrass [8]
  herbicidal effect rating, L: windgrass: 0 (Herbicidal rate of 5% or less (almost no effect))
Velvetleaf [9]
  herbicidal effect rating, M: velvetleaf: 0 (Herbicidal rate of 5% or less (almost no effect))
Redroot pigweed [10]
  herbicidal effect rating, N: redroot pigweed: 0 (Herbicidal rate of 5% or less (almost no effect))
Lambsquarters [11]
  herbicidal effect rating, O: lambsquarters: 0 (Herbicidal rate of 5% or less (almost no effect))
Chickweed [12]
  herbicidal effect rating, P: chickweed: 4 (Herbicidal rate of 70% or more and less than 90%)
Persian speedwell [13]
  herbicidal effect rating, R: persian speedwell: 4 (Herbicidal rate of 70% or more and less than 90%)
Southern crabgrass [14]
  herbicidal effect on F: southern crabgrass: 3 (Herbicidal rate of 40% or more and less than 70%)
Green foxtail [15]
  herbicidal effect on G: green foxtail: 4 (Herbicidal rate of 70% or more and less than 90%)
Barnyard grass [16]
  herbicidal effect on H: barnyard grass: 2 (Herbicidal rate of 20% or more and less than 40%)
Wild oat [17]
  herbicidal effect on I: wild oat: 0 (Herbicidal rate of 5% or less (almost no effect))
Blackgrass [18]
  herbicidal effect on J: blackgrass: 0 (Herbicidal rate of 5% or less (almost no effect))
Italian ryegrass [19]
  herbicidal effect on K: Italian ryegrass: 1 (Herbicidal rate of 5% or more and less than 20%)
Windgrass [20]
  herbicidal effect on L: windgrass: 0 (Herbicidal rate of 5% or less (almost no effect))
Velvetleaf [21]
  herbicidal effect on M: velvetleaf: 3 (Herbicidal rate of 40% or more and less than 70%)
Redroot pigweed [22]
  herbicidal effect on N: redroot pigweed: 5 (Herbicidal rate of 90% or more (almost completely withered))
Lambsquarters [23]
  herbicidal effect on O: lambsquarters: 4 (Herbicidal rate of 70% or more and less than 90%)
Chickweed [24]
  herbicidal effect on P: chickweed: 5 (Herbicidal rate of 90% or more (almost completely withered))
Persian speedwell [25]
  herbicidal effect on R: persian speedwell: 5 (Herbicidal rate of 90% or more (almost completely withered))

## CON=C(C)COc1ccc(-c2sc3ccc(F)cc3c2-c2c(O)c(C)nn(C)c2=O)cc1 [2-069]
Barnyard grass [1]
  herbicidal effect on H (barnyard grass), rating 0-5: 5 (Herbicidal rate of 90% or more (almost completely withered))
Chinese sprangletop
  herbicidal effect on D (Chinese sprangletop), rating 0-5: 4 (Herbicidal rate of 70% or more and less than 90%)
Rice flat sedge
  herbicidal effect on E (rice flat sedge), rating 0-5: 5 (Herbicidal rate of 90% or more (almost completely withered))
Southern crabgrass [2]
  herbicidal effect rating, F: southern crabgrass: 5 (Herbicidal rate of 90% or more (almost completely withered))
Green foxtail [3]
  herbicidal effect rating, G: green foxtail: 5 (Herbicidal rate of 90% or more (almost completely withered))
Barnyard grass [4]
  herbicidal effect rating, H: barnyard grass: 5 (Herbicidal rate of 90% or more (almost completely withered))
Wild oat [5]
  herbicidal effect rating, I: wild oat: 0 (Herbicidal rate of 5% or less (almost no effect))
Blackgrass [6]
  herbicidal effect rating, J: blackgrass: 0 (Herbicidal rate of 5% or less (almost no effect))
Italian ryegrass [7]
  herbicidal effect rating, K: Italian ryegrass: 5 (Herbicidal rate of 90% or more (almost completely withered))
Windgrass [8]
  herbicidal effect rating, L: windgrass: 0 (Herbicidal rate of 5% or less (almost no effect))
Velvetleaf [9]
  herbicidal effect rating, M: velvetleaf: 3 (Herbicidal rate of 40% or more and less than 70%)
Redroot pigweed [10]
  herbicidal effect rating, N: redroot pigweed: 5 (Herbicidal rate of 90% or more (almost completely withered))
Lambsquarters [11]
  herbicidal effect rating, O: lambsquarters: 5 (Herbicidal rate of 90% or more (almost completely withered))
Chickweed [12]
  herbicidal effect rating, P: chickweed: 4 (Herbicidal rate of 70% or more and less than 90%)
Persian speedwell [13]
  herbicidal effect rating, R: persian speedwell: 5 (Herbicidal rate of 90% or more (almost completely withered))
Southern crabgrass [14]
  herbicidal effect on F: southern crabgrass: 5 (Herbicidal rate of 90% or more (almost completely withered))
Green foxtail [15]
  herbicidal effect on G: green foxtail: 5 (Herbicidal rate of 90% or more (almost completely withered))
Barnyard grass [16]
  herbicidal effect on H: barnyard grass: 5 (Herbicidal rate of 90% or more (almost completely withered))
Wild oat [17]
  herbicidal effect on I: wild oat: 2 (Herbicidal rate of 20% or more and less than 40%)
Blackgrass [18]
  herbicidal effect on J: blackgrass: 5 (Herbicidal rate of 90% or more (almost completely withered))
Italian ryegrass [19]
  herbicidal effect on K: Italian ryegrass: 5 (Herbicidal rate of 90% or more (almost completely withered))
Windgrass [20]
  herbicidal effect on L: windgrass: 5 (Herbicidal rate of 90% or more (almost completely withered))
Velvetleaf [21]
  herbicidal effect on M: velvetleaf: 5 (Herbicidal rate of 90% or more (almost completely withered))
Redroot pigweed [22]
  herbicidal effect on N: redroot pigweed: 5 (Herbicidal rate of 90% or more (almost completely withered))
Lambsquarters [23]
  herbicidal effect on O: lambsquarters: 5 (Herbicidal rate of 90% or more (almost completely withered))
Chickweed [24]
  herbicidal effect on P: chickweed: 5 (Herbicidal rate of 90% or more (almost completely withered))
Persian speedwell [25]
  herbicidal effect on R: persian speedwell: 5 (Herbicidal rate of 90% or more (almost completely withered))
